Experimental data published in patent publication US6696457B1, “Morphinoid compounds” (SmithKline Beecham p.l.c., priority 1999, dated 2004).
Counter-ions that a name gives are not always drawn.

Assays:
[1] = metabolic stability: intrinsic clearance in liver microsomes; assay type: in vitro ADME, human; settings: 0.5 uM compound, 0.5 mg/ml microsomal protein, 37° C., 30 minutes, NADPH regenerating system
Experimental: The metabolic stability of the compounds of the invention was determined in the following manner: the compounds were incubated (37° C.) at 0.5 uM over 30 minutes with microsomal protein (at a concentration of 0.5 mg/ml) and an NADPH regenerating system (cofactor); the incubation volume was made up to a total of 1 mL with 50 mM potassium phosphate buffer (pH 7.4).
All of the incubation components, apart from cofactor, were pre-incubated for approximately 5 minutes then the reaction was started by the addition of cofactor solution. 50 uL samples were removed from the incubation at 3 minute intervals and placed into 200 uL of acetonitrile (containing an Internal Standard) to precipitate the microsomal protein and terminate the reaction.
All samples were analysed by LC/MS for parent compound and Internal Standard (I.S) and the results calculated as peak area ratios: compound/I.S.
The peak area ratios were plotted against time and intrinsic clearance values were calculated from the fitted exponential decay curve:
CLint (mL/min/g liver)=(k·V·microsomal yield)/[protein] […]
k=rate constant from the exponential decay curve
V=incubation volume (1 mL) microsomal yield=standard microsomal protein yield from 1 g liver (52.5 mg) [protein]=protein concentration in each incubation (0.5 mg/mL); a solution containing 0.5 uM of the compound under study was incubated with 0.5 mg of liver microsomal protein over 30 min at 37° C. Samples were taken, protein precipitated with acetonitrile and centrifuged prior HPLC-MS analysis.

[2] = target: T1, human delta opioid receptor (h-DOR/CHO) (Homo sapiens, UniProt P41143); test: cAMP bioassay: inhibition of forskolin-stimulated cAMP in h-DOR/CHO cells; assay type: cell-based
T1 construct: expressed in transfected cells
T1 sequence (P41143 whole entry): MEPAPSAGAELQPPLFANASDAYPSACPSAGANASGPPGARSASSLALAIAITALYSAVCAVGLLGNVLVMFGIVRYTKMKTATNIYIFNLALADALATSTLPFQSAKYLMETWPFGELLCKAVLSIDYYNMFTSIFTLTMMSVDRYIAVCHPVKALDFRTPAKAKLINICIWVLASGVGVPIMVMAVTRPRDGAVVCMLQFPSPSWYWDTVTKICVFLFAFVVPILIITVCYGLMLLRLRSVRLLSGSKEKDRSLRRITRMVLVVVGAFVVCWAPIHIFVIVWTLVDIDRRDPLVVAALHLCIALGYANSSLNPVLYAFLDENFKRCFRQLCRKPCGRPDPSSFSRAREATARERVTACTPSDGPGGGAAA
Experimental: The delta agonistlantagonist activity of the compounds of the present invention is determined in the cAMP bioassay in CHO cell lines stably expressing the human delta opioid receptor (h-DOR/CHO).
For the cAMP assay whole h-DOR/CHO cells were incubated with test compounds in Krebs-Ringer 200 mM, buffered with HEPES, containing (mM): NaCl (125), KCl (5), KH2PO4 (0.4), MgSO4 (1.2), CaCl2 (1.2), NaHCO3(25), glucos (12) and IBMX (1). Cells were treated with forskolin […] to stimulate cAMP synthesis.
The cAMP content was determined using a double antibody [^125I]-cAMp radioimmunoassay (Amersham RPA 509). The data were normalised to protein content.

[3] = in vivo clearance and absolute bioavailability

Row | Compound | in vitro Clearance (human microsomes) CL [1] | other results
1 | Cc1c(C(=O)N(Cc2ccccc2)C(C)C)[nH]c2c1CC1C3Cc4ccccc4C1(CCN3)C2 (stereo not drawn) [Example 4, [10R,4bS-(4b beta,9a beta)]-7-(N-isopropyl-N-benzyl)aminocarbonyl-8-methyl-4b,5,9,9a, 10,11-hexahydro-(6H)-10-,4b-(iminoethano)phenanthro[3,2-b]pyrrole] | 3.3 ml/min/g liver | –
2 | Cc1c(C(=O)N2CCc3ccccc3C2)[nH]c2c1CC1(O)C3Cc4ccccc4C1(CCN3)C2 (stereo not drawn) [Example 6, [10R,4bR-(4b beta,9a beta)]-7-(1,2,3,4-tetrahydroisoquinolin-2-yl)carbonyl-8-methyl-4b,5,9,9a, 10,11-hexahydro-9a-hydroxy-(6H)-1 0,4b-(iminoethano)phenanthro[3,2-b]pyrrole] | <0.6 ml/min/g liver | –
3 | CCN(Cc1ccccc1)C(=O)c1c(C)c2c(n1C)CC13CCNC(Cc4ccccc41)C3C2 (stereo not drawn) [Example 11, [10R,4bS-(4b beta,9a beta)]-7-(N-ethyl-N-benzyl)aminocarbonyl-6,8-dimethyl-4b,5,9,9a,10,11-hexahydro-(6H)-10-,4b-(iminoethano)phenanthro[3,2-b]pyrrole] | 13.0 ml/min/g liver | –
4 | CCN(C(=O)c1[nH]c2c(c1C)C[C@@]1(O)[C@H]3Cc4ccccc4[C@@]1(CCN3)C2)c1ccccc1 [Example 8, [10R,4bR-(4b beta,9a beta)]-7-[(N-phenyl-N-ethyl)aminocarbonyl]-4b,5,9,9a, 10,11-hexahydro-9a-hydroxy-(6H)-8-methyl-10,4(iminoethano)-phenanthro[3,2-b]pyrrole] | 5.9 ml/min/g liver | –
5 | [10R,4bR-(4bb,9ab)]-7-(N,N-diisopropyl)aminocarbonyl-8,14-dimethyl4b,5,9,9a,10,11-hexahydro9a-hydroxy-(6H)-10,4b-(iminoethano)phenanthro[3,2-b]pyrrole. [Example 19] | 5.7 ml/min/g liver | –
6 | Cc1c(C(=O)N2CCc3ccccc3C2)[nH]c2c1CC1(O)C3Cc4ccccc4C1(CCN3C)C2 (stereo not drawn) [Example 21, [10R,4bR-(4b beta,9a beta)]-7-(1,2,3,4-tetrahydroisoquinolin-2-yl)carbonyl-8,14-dimethyl-4b,5,9,9a,10,11-hexahydro-9a-hydroxy-(6H)-10,4b-(iminoethano)phenanthro-[3,2-b]pyrrole] | 6.0 ml/min/g liver | –
7 | [10R,4bS-(4b beta,9a beta)]-7-(N-ethyl-N-phenyl)aminocarbonyl-8-methyl-4b,5,9,9a, 10,11-hexahydro-(6H)-10,4b-(iminoethano)phenanthro[3,2-b]pyrrole [Example 9] | 4.5 ml/min/g liver | –
8 | Cc1c2c(n(C)c1C(=O)N(Cc1ccccc1)C(C)C)CC13CCNC(Cc4ccccc41)C3(O)C2 (stereo not drawn) [Example 10, [10R,4bS-(4b beta,9a beta)]-7-(N-benzyl-N-isopropyl)aminocarbonyl-6,8-dimethyl-4b,5,9,9a, 10,11-hexahydro-9a-hydroxy-(6H)-10,4b-(iminoethano)-phenanthro[3,2-b]pyrrole] | 5.2 ml/min/g liver | –
9 | Cc1c(C(=O)N(Cc2ccccc2)C(C)C)[nH]c2c1C[C@@]1(O)[C@H]3Cc4ccccc4[C@@]1(CCN3)C2 [Example 2, [10R,4bR-(4b beta,9a beta)]-7-[(N-benzyl-N-isopropyl)aminocarbonyl]-8-methyl-4b,5,9,9a, 10,11-hexahydro-9a-hydroxy-(6H)-10,4b-(iminoethano)phenanthro-[3,2-b]pyrrole] | – | IC50 [2]: 1.15 nM; antagonism of the agonist activity by the selective delta antagonist naltrindole ([2]; naltrindole 100 nM, h-DOR/CHO cells): completely antagonised
10 | CCN(Cc1ccccc1)C(=O)c1[nH]c2c(c1C)CC1(O)C3Cc4ccccc4C1(CCN3)C2 (stereo not drawn) [Example 5, [10R,4bR-(4b beta,9a beta)]-7-(N-benzyl-N-ethyl)aminocarbonyl-8-methyl-4b,5,9,9a, 10,11-hexahydro-9a-hydroxy-(6H)-10,4b-(iminoethano)phenanthro[3,2-b]pyrrole] | 2.0 ml/min/g liver | –
11 | CCN(CC)C(=O)c1[nH]c2c(c1C)C[C@@]1(O)[C@H]3Cc4ccccc4[C@@]1(CCN3)C2 [Example 3, [10R,4bR-(4b beta,9a beta)]-7-(N,N-diethyl)aminocarbonyl-8-methyl-4b,5,9,9a, 10,11-hexahydro-9a-hydroxy-(6H)-10,4b-(iminoethano)phenanthro[3,2-b]pyrrole] | 0.8 ml/min/g liver | in vivo Clearance CL [3]: 27 ± 2 mL/min/kg; in vivo Absolute bioavailability F ipv ([3]; ipv): 60 ± 7%
12 | Cc1c(C(=O)N(C(C)C)C(C)C)[nH]c2c1CC1(O)C3Cc4ccccc4C1(CCN3)C2 (stereo not drawn) [Example 1, [10R,4bR-(4b beta,9a beta)]-7-(N,N-diisopropyl)aminocarbonyl-8-methyl-4b,5,9,9a, 10,11-hexahydro-9a-hydroxy-(6H)-10,4b-(iminoethano)phenanthro[3,2-b]pyrrole] | 1.3 ml/min/g liver | –
13 | Cc1c(C(=O)N(Cc2ccccc2)C(C)C)[nH]c2c1C[C@@]1(O)[C@H]3Cc4ccccc4[C@@]1(CCN3)C2 (as salt: hydrochloride) [Example 2, [10R,4bR-(4b beta,9a beta)]-7-[(N-benzyl-N-isopropyl)aminocarbonyl]-8-methyl-4b,5,9,9a, 10,11-hexahydro-9a-hydroxy-(6H)-10,4b-(iminoethano)phenanthro-[3,2-b]pyrrole] | – | melting point: > 250 °C
14 | Cc1c(C(=O)CC(C)C)[nH]c2c1C[C@@]1(O)[C@H]3Cc4ccccc4[C@@]1(CCN3)C2 [Example 7, [10R,4bR-(4b beta,9a beta)]-7-isobutylcarbonyl-8-methyl4b,5,9,9a,10,11-hexahydro-9a-hydroxy-(6H)-10,4b-(iminoethano)phenanthro[3,2-b]pyrrole] | <0.6 ml/min/g liver | melting point: 170 to 175 °C
